Reference: patent US20230109157A1, “TOPICALLY APPLICABLE PREPARATION COMPRISING PEPTIDES AS ALLERGEN PROTECTION FOR THE SKIN” (BEIERSDORF AG, priority 2020, published 2023)
Where no end group is shown, it is not given here.

Tests used:
[1] = Direct peptide reactivity assay (DPRA) with urushiols, Ellman's reagent, 24 h; conditions: FIG. 9; urushiols C15:1, C15:2, C15:3 (structures I-V); 24 h reaction, n=3
Method: FIGS. 7A-E, 8, and 9 show investigations into the reactivity of peptides of the invention with allergens over time (x-axis) and after 24 h. The absorbance is plotted on the y-axis. The peptide-allergen reactions were realized according to a direct peptide reactivity assay. The test is referred to as the in-chemico method, that is to say no cells are used, but a chemical reaction is carried out.
The native, still-unbound peptide is detected by reaction with Ellman's reagent and corresponding absorbance measurement. The direct peptide reactivity assay (DPRA) is a chemical method for predicting epidermal protein binding. DPRA uses for example HPLC to measure the depletion of peptides in solution after exposure to test chemicals.
In the DPRA method, the absorbance at 415 nm is determined as the measured variable.
The allergen concentration is in the investigations carried out a standard 5 mM and thus 10 times the concentration of the peptide used (0.5 mM).
The reaction courses shown in FIGS. 8 and 9 were determined colorimetrically through the reaction of the peptide with Ellmann's reagent in a photometer. In this reaction, DTNB ((5,5′-dithiobis-2-nitrobenzoic acid, Ellmann's reagent) is cleaved and attached to the SH residue of the amino acid cysteine of the peptides of the invention (Ac-RFAACAA, RFAACAA). […]

interleukin 6 (IL6) = assay: Interleukin 6 in supernatants of Phenion FTS full skin models (Bio-Plex multiplex immunoassay); type: cell-based, Human; conditions: FIG. 4, left bar; peptide alone
Method: (§1) The investigations were carried out using Phenion FTS full skin models (Phenion, Henkel). These were maintained for 3 days at 37° C. and 7% CO2 in deep-well plates having a […] pore size in the cell culture inserts. The skin models were maintained in 1.5 ml of air-liquid interface medium without phenol red. The medium was changed daily. The test substances were dissolved in ethanol and incubated at room temperature for 24 h. After culturing for 24 h, 25 μl of the substance solution was dripped onto a sterile filter paper that had previously been laid on the skin model. The barrier peptide (0.5 mM AcRFAACAA) had previously been applied to the model as a solution in 100 mM phosphate buffer (pH 7.5). Alternatively, the barrier peptide was applied in a formulation having a content of 0.25% by weight.
(§2) After culturing for a further 24 h, the models were harvested and one half embedded in OCT mounting medium (VWR Q-Path Chemicals), the other half snap-frozen in liquid nitrogen. The supernatant of each model was collected and stored at −20° C.
The supernatants were then analyzed (FIGS. 2, 3 and 4).
The supernatants of the Phenion FTS models were analyzed using the Bio-Plex Pro Human Cytokine Screening Panel (Bio-Rad) according to the manufacturer's protocol. […] The cytokine concentrations are calculated on the basis of the standard curves from the Bioplex system. […]

Phenion skin models = assay: H&E staining of cryosections of Phenion skin models; type: cell-based; conditions: FIG. 5B; 0.5 mM peptide (control)
Method: as §1, §2
In further investigations, frozen sections were thawed and incubated for 10 min in 3.7% paraformaldehyde at RT. After three PBS wash steps and one minute in distilled water, they are stained for 3 min in hematoxylin solution. […]

interleukin 6 (IL6) concentration, peptide on its own (interleukin 6 (IL6))	skin model histology (H&E), peptide alone (Phenion skin models)	Substance	reactivity and thus protective activity against urushiols [1]
		RFAACAA [Arg Phe Ala Ala Cys Ala Ala]	very high reactivity
unchanged	unchanged	Ac-RFAACAA [Ac-RFAACAA, acetylarginine-phenylalanine-alanine-alanine-cysteine-alanine-alanine]	
